The values below come from PMC7072624 (Biomolecules, 2020).

For one assay, the target named is T1, CDK5 (CDK5/p25) (Homo sapiens, UniProt Q00535).
T1 construct: with p25
The assay can be described thus: in vitro kinase inhibition assay. The assay is classed as biochemical.

Assay [1] addresses T2, peroxisome proliferator-activated receptor γ (PPARγ) (Homo sapiens, UniProt P37231).
T2 construct: gene PPARG
T2 sequence (P37231 223-505): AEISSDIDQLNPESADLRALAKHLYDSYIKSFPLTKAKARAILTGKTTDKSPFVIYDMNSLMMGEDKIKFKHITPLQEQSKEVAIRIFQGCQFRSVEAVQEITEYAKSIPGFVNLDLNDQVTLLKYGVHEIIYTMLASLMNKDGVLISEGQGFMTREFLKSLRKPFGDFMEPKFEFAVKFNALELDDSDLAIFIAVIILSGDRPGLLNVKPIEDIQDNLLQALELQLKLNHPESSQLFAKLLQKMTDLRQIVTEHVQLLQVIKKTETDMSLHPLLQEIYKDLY
The assay can be described thus: ([…] Å); competitive TR-FRET binding assay.

A further assay deals with T3, PPARγ (Homo sapiens, UniProt P37231).
T3 construct: gene PPARG
T3 sequence (P37231 1-505): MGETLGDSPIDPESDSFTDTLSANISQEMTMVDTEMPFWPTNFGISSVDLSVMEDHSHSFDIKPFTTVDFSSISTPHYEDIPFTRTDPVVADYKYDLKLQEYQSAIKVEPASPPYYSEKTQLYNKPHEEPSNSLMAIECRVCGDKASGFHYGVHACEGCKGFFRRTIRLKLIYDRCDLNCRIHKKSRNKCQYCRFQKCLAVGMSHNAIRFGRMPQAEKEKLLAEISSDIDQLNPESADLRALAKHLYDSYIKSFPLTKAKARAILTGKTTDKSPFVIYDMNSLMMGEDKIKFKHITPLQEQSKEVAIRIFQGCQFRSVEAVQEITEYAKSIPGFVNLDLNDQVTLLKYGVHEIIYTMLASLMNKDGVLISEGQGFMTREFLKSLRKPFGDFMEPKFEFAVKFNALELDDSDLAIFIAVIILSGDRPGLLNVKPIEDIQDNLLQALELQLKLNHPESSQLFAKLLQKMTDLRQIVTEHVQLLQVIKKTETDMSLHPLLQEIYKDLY
Put plainly: competitive TR-FRET binding assay (Lanthascreen).

T1 sequence (Q00535 whole entry): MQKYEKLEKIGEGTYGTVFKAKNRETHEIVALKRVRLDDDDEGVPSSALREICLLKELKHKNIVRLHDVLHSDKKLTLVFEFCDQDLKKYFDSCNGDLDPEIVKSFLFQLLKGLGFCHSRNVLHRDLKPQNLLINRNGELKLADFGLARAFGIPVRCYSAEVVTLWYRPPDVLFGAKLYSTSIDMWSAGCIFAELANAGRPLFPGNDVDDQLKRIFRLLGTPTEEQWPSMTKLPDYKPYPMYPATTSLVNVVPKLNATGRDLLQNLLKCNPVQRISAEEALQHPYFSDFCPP
T1 sequence (Q15078 2-307 partner): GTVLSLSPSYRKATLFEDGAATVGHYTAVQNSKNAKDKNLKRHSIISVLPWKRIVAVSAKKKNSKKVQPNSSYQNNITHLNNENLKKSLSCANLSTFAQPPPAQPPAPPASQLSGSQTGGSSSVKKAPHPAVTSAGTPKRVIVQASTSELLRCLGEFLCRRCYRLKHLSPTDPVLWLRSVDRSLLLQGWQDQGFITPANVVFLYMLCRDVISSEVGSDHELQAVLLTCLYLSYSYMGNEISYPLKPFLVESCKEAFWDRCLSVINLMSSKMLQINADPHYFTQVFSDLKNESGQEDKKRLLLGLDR

With `COC(=O)[C@]1(Cc2ccc(O)c(CC=C(C)C)c2)OC(=O)C(O)=C1c1ccc(O)cc1` [butyrolactone I], the IC50 against CDK5 (CDK5/p25) amounted to 0.17 µM. The same molecule yielded a Ki in assay [1] of 2.64 µM.

`COc1ccc(Cl)cc1C(=O)NCCc1ccc(S(=O)(=O)NC(=O)NC2CCCCC2)cc1` [glibenclamide] returned a Ki at PPARγ of 1.18 µM.
